Measured values from PubChem BioAssay (NCI).
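Step 1: Grow cells in 96-well plates. Step 2: Expose to compound for 48 hours at 5 concentrations. Step 3: Interpolate endpoints linearly; if unreached, use highest concentration. Abbreviation: GI50, concentration required for 50% inhibition of growth. TGI: total growth inhibition.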 Where a SMILES comes first, the peptide text is derived from it. The star is where a group is joined. Fmoc = O=C(OCC1c2ccccc2-c2ccccc21)*; OBn = c1ccc(CO*)cc1; tBu = CC(C)(C)*

Assays:
Experiment in all cases: DTP human tumour cell line panel, 48 h
[1] = test system: HCC-2998 colon
[2] = test system: U251 CNS
[3] = test system: HCT-116 colon
[4] = test system: NCI-H522 lung
[5] = test system: KM12 colon
[6] = test system: SW-620 colon
[7] = test system: HT29 colon
[8] = test system: DU-145 prostate
[9] = test system: DMS 273 small cell lung
[10] = test system: DLD-1 colon

| SMILES | TGI [1] | TGI [2] | TGI [3] | TGI [4] | TGI [5] | TGI [6] | TGI [7] | TGI [8] | TGI [9] | TGI [10] | GI50 [1] | GI50 [2] | GI50 [3] | GI50 [4] | GI50 [5] | GI50 [6] | GI50 [7] | GI50 [8] |
| --- | --- | --- | --- | --- | --- | --- | --- | --- | --- | --- | --- | --- | --- | --- | --- | --- | --- | --- |
| CCOc1ccc(Nc2nc(N)nc(N)c2N=O)cc1 | > 100 µM | > 100 µM | > 100 µM | > 100 µM | > 100 µM | > 100 µM | > 100 µM | > 100 µM | – | – | – | – | – | – | – | – | – | – |
| COC1CCC(OS(C)(=O)=O)C(C)O1 (configuration not stated) | > 10 µM | > 10 µM | > 10 µM | > 10 µM | > 10 µM | > 10 µM | > 10 µM | > 10 µM | – | – | – | – | – | – | – | – | – | – |
| COC(=O)[C@]1(c2cc3ccccc3[nH]2)CC2CNC1C1OC(C)(C)OC21 (some centres not stated) | > 100 µM | > 100 µM | > 100 µM | > 100 µM | > 100 µM | > 100 µM | > 100 µM | > 100 µM | – | – | – | – | – | – | – | – | – | – |
| O=c1[nH]c(NCCCCCO)nc2nc[nH]c12 | > 100 µM | > 100 µM | > 100 µM | > 100 µM | > 100 µM | > 100 µM | > 100 µM | > 100 µM | – | – | – | – | – | – | – | – | – | – |
| CC(C)NC(=O)OCCN=C1c2ccccc2C(Br)C(Br)c2ccccc21 (configuration not stated) | 49.8 µM | 25.5 µM | > 58.1 µM | 3.52 µM | 45.8 µM | > 27.3 µM | 25 µM | 30 µM | – | – | – | – | – | – | – | – | – | – |
| O=C(c1ccccc1)C1C(c2ccccc2[N+](=O)[O-])N1C1CCCCC1 (configuration not stated) | 18 µM | 18.5 µM | 8.6 µM | 5.9 µM | 25.2 µM | > 26.6 µM | 16.4 µM | 22.6 µM | – | – | – | – | – | – | – | – | – | – |
| CN(C)c1ccc(/C=C2\N=C(c3ccccc3)N(c3nc4ccc(Sc5ccccc5)cc4[nH]3)C2=O)cc1 | 33.5 µM | > 100 µM | > 100 µM | > 100 µM | > 100 µM | > 100 µM | > 100 µM | > 100 µM | – | – | – | – | – | – | – | – | – | – |
| CSC1=C(C)C(/C=N/Nc2ccc([N+](=O)[O-])cc2)=C(C)N(c2ccccc2)S1(=O)=O | > 100 µM | > 100 µM | > 100 µM | > 100 µM | > 100 µM | > 100 µM | > 100 µM | > 100 µM | – | – | – | – | – | – | – | – | – | – |
| CCOC(=O)NCC(=O)NCC(=O)NCC(N)=O | > 100 µM | > 100 µM | > 100 µM | > 100 µM | > 100 µM | > 100 µM | > 100 µM | > 100 µM | – | – | – | – | – | – | – | – | – | – |
| CC(OC(C)(C)C)C(NC(=O)OCC1c2ccccc2-c2ccccc21)C(=O)NC(Cc1ccccc1)C(=O)OCc1ccccc1 (configuration not stated) (Fmoc-Thr(tBu)-Phe-OBn; configuration not given here) | > 100 µM | > 100 µM | > 100 µM | > 100 µM | > 100 µM | > 100 µM | > 100 µM | > 100 µM | – | – | – | – | – | – | – | – | – | – |
| COc1ccccc1-c1cc(=O)c2cccnc2[nH]1 | > 100 µM | > 100 µM | > 100 µM | > 100 µM | > 100 µM | > 100 µM | > 100 µM | > 100 µM | – | – | – | – | – | – | – | – | – | – |
| C[N+](C)([O-])C12CC3CC(CC(C3)C1)C2 | > 100 µM | > 100 µM | 91.2 µM | 65.7 µM | > 100 µM | > 100 µM | > 100 µM | > 100 µM | – | – | – | – | – | – | – | – | – | – |
| CC1=NN(C(=O)CC(=O)Nc2cccc(C)c2)C(=O)C1N=Nc1ccc(C(=O)O)cc1 (configuration not stated) | > 100 µM | > 100 µM | > 100 µM | > 100 µM | > 100 µM | > 100 µM | > 100 µM | > 100 µM | – | – | – | – | – | – | – | – | – | – |
| CC(C)C(Nc1c2ccccc2[n+](C)c2ccccc12)C(=O)O (configuration not stated) | > 100 µM | > 100 µM | > 100 µM | > 100 µM | > 100 µM | > 100 µM | > 100 µM | – | > 100 µM | > 100 µM | – | – | – | – | – | – | – | – |
| COC1=C(OC)C(=O)C(Cc2c(-c3ccccc3)nc3sc(Cl)cn23)=C(C)C1=O | 46.6 µM | 40.1 µM | 39.9 µM | 30.8 µM | 41 µM | 50.6 µM | 41.7 µM | 49.1 µM | – | – | – | – | – | – | – | – | – | – |
| O=c1ccc(=O)c2c1c1[nH]c3ccccc3c1c1c(=O)c3ccccc3c(=O)c21 | > 10 µM | > 10 µM | > 10 µM | > 10 µM | > 10 µM | > 10 µM | > 10 µM | > 10 µM | – | – | – | – | – | – | – | – | – | – |
| CCOC(=O)NC(Nc1ccc(C(=O)O)cc1)(C(F)(F)F)C(F)(F)F | > 100 µM | > 100 µM | > 100 µM | > 100 µM | > 100 µM | > 100 µM | > 100 µM | > 100 µM | – | – | – | – | – | – | – | – | – | – |
| COc1cc2ccc(C(C)NCC#N)cc2cc1OC (configuration not stated) | > 100 µM | > 100 µM | > 100 µM | > 100 µM | > 100 µM | > 100 µM | > 100 µM | > 100 µM | – | – | – | – | – | – | – | – | – | – |
| CC[P+](c1ccccc1)(N(C)C)N(C)C | > 100 µM | > 100 µM | > 100 µM | > 100 µM | > 100 µM | > 100 µM | > 100 µM | > 100 µM | – | – | – | – | – | – | – | – | – | – |
| COc1ccc(C2CC(c3cccc(Nc4ccncc4)c3)=NN2c2ccccc2)cc1 (configuration not stated) | 3.01 µM | 3.8 µM | 3.29 µM | 3.81 µM | 3.5 µM | 3.43 µM | 6.87 µM | 6.51 µM | – | – | 1610 nM | 1940 nM | 1680 nM | 1810 nM | 1790 nM | 1810 nM | 2470 nM | 2570 nM |
| CCOC(=O)CC1(N)CC2c3ccccc3OC(=O)C2C(=O)N1 (configuration not stated) | > 100 µM | > 100 µM | > 100 µM | > 100 µM | > 100 µM | > 100 µM | > 100 µM | > 100 µM | – | – | – | – | – | – | – | – | – | – |
